Laboratory results reported in patent US12115176B2, “Methods and compositions relating to ClbP inhibition” (PRESIDENT AND FELLOWS OF HARVARD COLLEGE, priority 2021, dated 2024).
pIC50: −log10 of the molar value. ≈ marks a conversion by molar mass, not a printed value. Where two headings read alike, the source gives them in different places.

How the values were obtained:
Enterococcus faecalis = experiment: Bacterial MIC assay (broth dilution); assay type: cell-based; settings: read-out: MICs by compound
Lactobacillus rhamnosus = experiment: Bacterial MIC assay (broth dilution); assay type: cell-based; settings: Lacticaseibacillus rhamnosus, read-out: MICs by compound
Bifidobacterium longum = experiment: Bacterial MIC assay (broth dilution); assay type: cell-based; settings: read-out: MICs by compound
Klebsiella oxytoca = experiment: Bacterial MIC assay (broth dilution); assay type: cell-based; settings: read-out: MICs by compound
Escherichia coli NC101 = experiment: Bacterial MIC assay (broth dilution); assay type: cell-based; settings: read-out: MICs by compound
Procedure: (§1) MICs of compounds against different bacterial species were determined using a modified version of a broth microdilution protocol which has been previously reported.^1 Briefly, cultures of each species indicated were inoculated from frozen stocks in deoxygenated Wilkins-Chalgren Anaerobic Medium (WCAM) inside of an anerobic chamber with an 92.5% N2/5% CO2/2.5% H2 atmosphere. Cultures were grown for 24-48 hours in a 37° C. incubator at which point an OD600-measurement was taken for each culture and was accordingly diluted in fresh WCAM to an equivalent of OD600=0.01. Diluted cultures were then distributed into the wells of a clear, flat-bottom 384-well plate and the compound of interest was added to a final DMSO concentration of 2% (or DMSO only for positive controls). […] mineral oil (Millipore Sigma) was deposited on top of the cultures and plates were covered with a clear adhesive plate seal. Plates were incubated at 37° C. for 16 hours, at which point the OD600 of all wells was recorded on a SpectraMax M2 plate reader (Molecular Devices).

[1] = biological target: E. coli BL21 overexpressing ClbP (Escherichia coli, UniProt Q0P7K6); experiment: ClbP fluorescence activity assay (live cells); assay type: cell-based
Procedure: ClbP fluorescence activity assay (live cells). One 5 mL starter culture each E. coli BL21 pET-29b-ClbP and pET-29b-ClbP-S95A were inoculated from frozen stocks and grown overnight at 37° C. in LB medium supplemented with 50 μg/ml kanamycin (LB+kan). Overnight cultures were diluted 1:100 in fresh LB+kan and incubated at 37° C. to an OD600 of 0.3, at which point protein expression was induced by the addition of 500 μM isopropyl β-D-1-thiogalactopyranoside (IPTG) and cultures were moved to 15° C. for 4 hours. Cultures were then aliquoted in a black 384-well plate and the appropriate concentration of inhibitor was added as a DMSO stocks to a final concentration of 1% DMSO in a volume of 30 μL. Reactions were initiated by the addition of 10 μL of LB+kan+IPTG containing the fluorogenic substrate (final concentration=100 μM). Plastes were incubated at 25° C. with intermittent shaking while taking regular fluorescence measurements in a Bio-Tek Synergy HTX multimode plate reader with an excitation filter of 360/40 nm and an emission filter of 440/20 nm. “% activity” was determined based on the formula above using RFU measurements after 7 hours.

purified ClbP = purified ClbP (Escherichia coli, UniProt Q0P7K6); experiment: ClbP fluorescence activity assay (in vitro); assay type: biochemical, Escherichia coli CFT073; settings: for speed of reaching maximum potency, in words: slow-binding inhibition assay, 100 nM
Source text: Constructs and protein purification for in vitro assays. ClbP constructs described in this publication were derived from a previously described plasmid containing the Escherichia coli CFT073 ClbP sequence (GenBank ID: NP_754344.1) inserted between the NdeI and XhoI restriction sites of pET29b (Addgene plasmid #48244).^14 All in vitro experiments used a construct bearing a C-terminal 10×His tag. This longer polyhistidine-tag was obtained by extension of the previously described 6×His tag through site-directed mutagenesis. All site-directed mutations were introduced using the Quikchange mutagenesis protocol (Stratagene) and confirmed by Sanger DNA sequencing of the whole open reading frame. Plasmids were transformed into chemically competent C41(DE3) (Lucigen) cells and proteins were isolated as previously described.^34
ClbP fluorescence activity assay (in vitro). Assays were performed in a buffer containing 50 mM Tris, 200 mM NaCl, 0.02% w/v DDM at pH 8.0 with 25 nM purified ClbP and 25 μM fluorogenic substrate in a total volume of 20 μL.^34 Purified ClbP was defrosted on ice from stocks stored at −80° C. Stocks were diluted to 50 nM enzyme in assay buffer in the wells of a black, flat-bottom 384-well plate and the appropriate inhibitor in DMSO or DMSO was added to a final concentration of 1%. For experiments testing different inhibitor concentrations, reactions were allowed to sit for 1 hour at room temperature. For experiments testing different preincubation times, the inhibitor in DMSO was added to each reaction X minutes before initiating the reaction, where X is the time indicated on the x-axis for that sample. For experiments to test whether hydrolysis of the boronic ester was rate-limiting, the inhibitor was added to buffer with no enzyme present and allowed to sit at room temperature for the time indicated before adding the enzyme. In all cases, reactions were initiated by the addition of 10 μL, of buffer containing the 50 μM fluorogenic substrate to achieve a final concentration of 25 μM and pipetting once with a multichannel pipette to mix. Reaction progress was monitored in a plate reader (Bio-Tek Synergy HTX multimode plate reader) with an excitation filter of 360/40 nm and an emission filter of 440/20 nm. “% activity” was determined based on the measured relative fluorescence units (RFU) of each condition after 1 hour using the following formula: […]

[2] = test system: a variety of bacterial strains from common gut phyla, including E. coli; experiment: Turbidity MIC assay, all strains together; assay type: cell-based; settings: Escherichia coli; all strains tested; upper limit tested 200 μM; read-out: MICs in liquid culture
Source text: Compound 3 is an inhibitor of colibactin-associated genotoxicity. Since colibactin is produced in the context of the gut microbiota, it is essential to understand how 3 can affect other members of this community and whether it remains an effective inhibitor under these conditions. […] A turbidity assay was used to determine minimum inhibitory concentrations (MICs) in liquid culture of 1-4 against a variety of bacterial strains from common gut phyla, including E. coli (Table 3).
as §1

ClbP = experiment: LC-MS quantitation of N-myristoyl-D-Asn produced by pks+ E. coli; assay type: cell-based, E. coli BW25113 BACpks; settings: pks+ E. coli (BW pks), versus DMSO
Procedure: LC-MS quantitation of N-myristoyl-D-Asn produced by pks^+ E. coli. One 5 mL starter culture each of E. coli BW25113 BACpks and E. coli BW25113 BACpksΔclbP was inoculated from frozen stocks and grown overnight at 37° C. in LB medium supplemented with 35 μg/ml chloramphenicol (LB+cam). Overnights were diluted 1:100 in fresh LB+cam+1% DMSO with the appropriate concentration of inhibitor and grown for 20 hours at 37° C. in a deep well plate in a shaking incubator. A 500 μL aliquot was taken from each sample, flash frozen in liquid nitrogen and lyophilized to dryness. Lyophilized pellets were extracted with 500 μL LC-MS grade methanol which contained 100 nM d27-N-myristoyl-D-asparagine as an internal standard, prepared as previously described, and vortexed for 30 seconds. After centrifugation at 16,500×g for 10 minutes in a tabletop microcentrifuge, supernatants were transferred to fresh 1.5 mL tubes and stored at −20° C. overnight. Samples were centrifuged again, and the supernatants analyzed by LC-MS/MS on a Waters Xevo TQ-S UPLC-triple quadrupole mass spectrometer using an Agilent Poroshell 120 EC-C18 column (2.7 μm, 4.6 mm×50 mm). […]

[3] = test system: FANCD2 in HeLa cell extracts; experiment: Western blot for FANCD2; assay type: cell-based, human; settings: 0.5 μg/mL mitomycin C or 7.5 μg/mL cisplatin, 4 hours, no bacteria
Procedure: Western Blot for FANCD2. Infections were carried out as described above. For conditions which involved other small molecules, no bacteria were introduced during the infection and cells were treated with either 0.5 μg/mL mitomycin C (MMC) or 7.5 μg/mL cisplatin under the same conditions for 4 hours. 20 hours after infection, cells were lysed directly in the culture wells (Lysis buffer: 50 mM Tris, (pH 8.0), 150 mM NaCl, 1% Triton X-100, 0.5% Sodium deoxycholate, 0.05% sodium dodecylsulfate, 1 mM MgSO4, SIGMAFAST Protease inhibitor mix, 100 U/mL benzonase (Millipore-Sigma). Lysates were then spun down at 16,000×g to remove particulates and the supernatant was mixed 1:1 with 2X Laemmli sample buffer (Bio-Rad) containing 50 mg/mL dithiothreitol (DTT). Samples were then heated at 70° C. for 10 minutes and run on an SDS-PAGE gel (3-8% Tris-Acetate Novex gel, Invitrogen) at 150 V for 1.5 hours at 4° C. Bands were then transferred to PVDF membranes (100 V, 1 hour at 4° C.) and blocked with 10% skim milk powder in TBST buffer at 4° C. overnight. Blots were probed sequentially with either mouse anti-actin (1.5 μg/mL) or mouse anti-FANCD2 (0.1 μg/mL) primary antibodies (Thermo Fisher Scientific, Catalog #MA511869 and MA123347), followed by a peroxidase-conjugated goat anti-mouse secondary antibody (Jackson ImmunoResearch product 115-035-003, 0.08 μg/mL). Each probing step was conducted for 90 minutes at room temperature n 2.5% skim milk powder in TBST. Before imaging, blots were washed 3×15 minutes each in TBST […]. Blots were imaged using the SuperSignal™ West Pico PLUS Chemiluminescent Substrate (Thermo Fisher Scientific) kit following the manufacturer's instructions and imaged using an Azure Biosystems c300 imager.

[4] = anaerobic, OD600 after 15 hours

MIC (Enterococcus faecalis; [4]) [µM]	MIC (Lactobacillus rhamnosus; Lactobacillus rhamnosus, anaerobic, OD600 after 15 hours) [µM]	MIC (Bifidobacterium longum; [4]) [µM]	MIC (Klebsiella oxytoca; [4]) [µM]	MIC (Escherichia coli NC101; Escherichia coli NC101, anaerobic, OD600 after 15 hours) [µM]	Compound	MIC (Enterococcus faecalis; 15 h) [µM]	MIC (Lactobacillus rhamnosus; 15 h) [µM]	pIC50 [1]	MIC (Bifidobacterium longum; 15 h) [µM]	MIC (Klebsiella oxytoca; 15 h) [µM]	pIC50 (purified ClbP)	MIC [2] [µM]	MIC (Escherichia coli NC101; Escherichia coli, NC101, 15 h) [µM]	speed of reaching maximum potency, in words (purified ClbP)	quantity of N-myristoyl-D-Asn prodrug released (ClbP)	abundance of FANCD2-Ub in HeLa cells [3]
50 (≈ 16.2 µg/mL)	25 (≈ 8.08 µg/mL)	12.5 (≈ 4.04 µg/mL)	6.25 (≈ 2.02 µg/mL)	25 (≈ 8.08 µg/mL)	O=C(N[C@H](CO)[C@H](O)c1ccc([N+](=O)[O-])cc1)C(Cl)Cl [CAM, Chloramphenicol, reference compound]	–	–	–	–	–	–	–	–	–	–	–
–	–	–	–	–	CCCCCC(=O)N[C@H](CC(N)=O)B1OC(C)(C)C(C)(C)O1 [Compound 1]	> 200	> 200	8.25	> 200	> 200	7.40	> 200	> 200	–	–	–
–	–	–	–	–	CC1(C)OB([C@@H](CC(N)=O)NC(=O)c2ccc3ccccc3c2)OC1(C)C [Compound 2]	> 200	> 200	8.14	> 200	> 200	7.47	> 200	> 200	achieved their maximum potency faster than compound 4	–	–
–	–	–	–	–	CC1(C)OB([C@@H](CC(N)=O)NC(=O)c2ccccc2)OC1(C)C [Compound 4]	> 200	> 200	7.57	> 200	> 200	7.16	> 200	> 200	showed a significant lag	slightly lower potency than the others	–
–	–	–	–	–	N.N.[Cl][Pt][Cl] [cisplatin, reference compound]	–	–	–	–	–	–	–	–	–	–	increase in abundance of FANCD2-Ub
–	–	–	–	–	CO[C@@]12[C@H](COC(N)=O)C3=C(C(=O)C(C)=C(N)C3=O)N1C[C@@H]1N[C@@H]12 [mitomycin C, reference compound]	–	–	–	–	–	–	–	–	–	–	increase in abundance of FANCD2-Ub
